Experimental findings from publication PMC12320293 (2025) are described below.

Test [1] relates to miR-31 hairpin (pre-miR-31 residues 20-52) (RNA, miRNA) GGCAUAGCUGUUGAACUGGGAACCUGCUAUGCC
Briefly: 1H-13C HSQC NMR. The following applies: KH2PO4 50 mM (500 mM in Methods), Mg2+ 1 mM; ND: no observable change at 10-fold ligand excess; 37 °C.

Test [2] shares this test system. Nature of the test: fluorescent indicator displacement. The following applies: KH2PO4 50 mM (500 mM in Methods), Mg2+ 1 mM, 100 μM compound, 50.9 nM RNA; for % TO-PRO-1 displaced: TO-PRO-1 500 nM displaced; for binding: TO-PRO-1 500 nM displaced by >15%.
Test [3] has the same test system. Briefly: STD-NMR. The following applies: KH2PO4 50 mM (500 mM in Methods), Mg2+ 1 mM, 10 μM RNA, 200 μM ligand.
The test system is the same in test [4]. Nature of the test: fluorescence titration of dye with RNA. The following applies: KH2PO4 50 mM (500 mM in Methods), Mg2+ 1 mM; 500 nM TO-PRO-1, RNA 0-20 μM, pH 7.5, 2% DMSO, room temperature.
Test [5] shares this test system. Briefly: 1H-13C HSQC NMR titration (chemical shift perturbation). Conditions: KH2PO4 50 mM (500 mM in Methods), Mg2+ 1 mM, apparent, pH 7.5, 2% DMSO, 10% D2O, 37 °C.
For test [6] the test system is unchanged. Nature of the test: 1H-13C HSQC NMR titration (peak volumes). The following applies: KH2PO4 50 mM (500 mM in Methods), Mg2+ 1 mM, apparent, pH 7.5, 2% DMSO, 10% D2O, 37 °C, 100 μM RNA.

Take `COc1ccc(Nc2nc(N)nc(N)c2C#N)cc1`: the binding result in test [1] is recorded as “weak”; in test [3] (pH 7.5, 25 °C), “weak”. For the same compound, the “% TO-PRO-1 displaced” value in test [2] (below 15% hit criterion) came out at 7.6 ± 1.8%.
For the compound `C[n+]1c(C=C2C=CN(CCC[N+](C)(C)C)c3ccccc32)sc2ccccc21`, the KD in test [4] came to 0.46 ± 0.06 µM.
For the compound `Cc1cccc(Nc2nc(N)nc(N)c2C#N)c1`, the binding entry is reported as “weak” in test [1] and “weak” in test [3] (pH 7.5, 25 °C). In addition, the “% TO-PRO-1 displaced” value in test [2] (below 15% hit criterion) stood at 7.6 ± 2.7%.
As for `Nc1cc(Nc2ccc(Br)cc2)nc(N)n1`, the KD in test [5] was > >1000 μM. Further, the binding result is given as “yes” in test [2] and “yes” in test [3] (pH 7.5, 2% DMSO, 25 °C).
In the case of `Nc1ccc(-c2nc3cncc(N)c3[nH]2)c(O)c1`, the KD in test [6] (excess ligand non-specific) is 29.10 ± 0.15 µM. Moreover, the “% TO-PRO-1 displaced” value in test [2] (2% DMSO, room temperature) was 28.6 ± 0.4%.
Consider `Nc1ccccc1-c1nc2cnccc2[nH]1`, for which the KD in test [5] (no saturation at 1 mM) is reported as > >1000 μM. For the same compound, the binding result in test [3] (pH 7.5, 25 °C, not detected by FID at 100 μM) was “yes”.
Regarding `Nc1nc(N)c2c(ccc3[nH]ccc32)n1`, in test [6] (non-specific at 10-fold excess), the KD amounted to 20.64 ± 9.40 µM. The binding result in test [2] is “yes”.
